Laboratory results from patent publication US10562935B2, “Stapled peptides and uses thereof” (London Health Sciences Centre Research Inc., priority 2015, dated 2020).
Bridges are numbered along the chain shown (N, C = ends).

Assays:
Assay type in all cases: cell-based
[1] = test system: RHAMM-overexpressing (LR21) cells; assay: Cell invasion assay (Boyden chamber with MATRIGEL, Chemicon ECM555); conditions: for inhibition of cellular invasion (in words): 10 ng/mL peptide, 20 hours, compared to 30% serum control; for Invasion (% inhib.): % inhibition relative to positive control, 10 ng/mL of peptide
Procedure: Compounds 132, 133, 135, 150-153, 156, 265-269, and 275-278 were evaluated for their ability to inhibit cellular invasion. Invasion assays were performed using Chemicon Assay Kits ECM555 (Invasion); Billerica, Mass., USA) according to the manufacturer's protocol. Invasion assays are performed in an identical manner as the migration assays described above in Example 5, except that cells are required to invade through a layer of extracellular matrix (MATRIGEL) coating the filter that separates the upper and lower Boyden chambers. Briefly, sub-confluent cultures of RHAMM-overexpressing (LR21) cells were serum starved overnight before plating 7.5×10^4 cells in the upper chamber of a Boyden chamber either in the presence or absence of 10 ng/mL of peptide. 30% fetal bovine serum in DMEM was used as the chemo-attractant in the lower chamber. The number of cells that had crossed the membrane after 20 hours was assessed using the CYQUANT® GR Dye and lysis buffer solution provided in the kit. Fluorescence was measured with a fluorescent plate reader using 480/520 nm filter set.
Values the mean and SDM of n=3 replicates. *p<0.05, **p<0.01, ***p<0.001 All statistics compared to 30% serum control. In FIG. 49, where bars are labeled with two compound numbers (“152/135”) this means that the data were pooled for the indicated compound, i.e., for the non-acetylated and acetylated versions of the indicated peptide.

[2] = test system: IMR90 human fetal lung fibroblasts; assay: Fibrosis assay: active TGF-β levels in TGF-β treated fibroblasts (ELISA); conditions: % inhibition relative to positive control
Procedure: Compounds 132, 133, 135, 150, 152, 157-161, 265-269, 275, 277, and 278 were evaluated for their ability to inhibit fibrosis. IMR90 human fetal lung fibroblasts were obtained from ATCC and maintained in DMEM supplemented with 10% fetal bovine serum. In order to examine the effect of peptides on myofibroblast differentiation, 80% confluent cultures were serum starved overnight prior to addition of TGF-β (2 ng/mL, R&D Systems). Cells were treated with TGF-β for 24 hours prior to addition of peptides (10 ng/mL). 48 hours after addition of peptides, culture supernatants were collected and levels of active TGF-β measured using commercially available TGF-β ELISA (Quantikine, R&D Systems).
Values are the Mean and SDM n=3 replicates. *p<0.05, **p<0.01, ***p<0.001 when compared to the +TGFβ1 control. In FIG. 47, where bars are labeled with two compound numbers (“133/150” and “135/152”) this means that the data were pooled for the indicated compounds, i.e., for the non-acetylated and acetylated versions of the indicated peptides.

[3] = Function blocking score: total percent inhibition over migration, invasion, inflammation and fibrosis assays divided by number of assays; conditions: for Function blocking score (FBS): total percent inhibition for all assays tested divided by number of assays
Procedure: As documented in the Examples hereinabove, a variety of cyclized peptides were produced that contained the HA-binding domain 1 (HABD1), HA-binding domain 2 (HABD2), or both HABD1 and HABD2. These peptides were evaluated for helicity, direct HA binding and in a number of cell-based bioassays (effects on migration, invasion, NFkB activation, and TGFβ1 production) that are relevant to inflammation and fibrosis. The relationships amongst helicity, HA-binding, and biofunction were evaluated. Peptides were divided into three groups for this analysis: (1) peptides containing HABD1 (“HABD1”); (2) peptides containing HABD2 (“HABD2”); and peptides containing most or all of HABD1 and all of HABD2 (“HABD1+HABD2”). R^2 values were calculated to quantify the relationships between helicity, HA-binding, and biofunction were evaluated.
The results of this analysis for the HABD1 peptides are shown below in Tables 15 and 16. Table 16 provides a function blocking scores for each of the tested peptides and provides R^2 values showing the relationship between HA binding and helicity (“HA binding vs. CD”), HA binding and function-blocking score (“HA binding vs. FBS”) and helicity vs. function-blocking score (“CD vs. FBS”). The same type of summaries are provided for the HABD2 peptides in Tables 17 and 18 below, and for the HABD1+HABD2 peptides in Tables 19 and 20 below.
Function blocking scores were calculated as the total percent inhibition achieved by the peptide for all assays the peptides were tested in, divided by the number of assays. Assays included migration, invasion, inflammation and fibrosis assays. Not all peptides were tested all of the assays. All peptides were included for deriving R^2 values (Pearson's formula).

## Ac-(cyclo-10-14, cyclo-15-19)-KIKHVVKLK[EENSK][KKSEE]SKLRSQLVKRK-NH2 (Ac-KIKHVVKLKEENSKKKSEESKLRSQLVKRK-NH2; lactam 10-14, 15-19; SMILES CC[C@H](C)[C@H](NC(=O)[C@H](CCCCN)NC(C)=O)C(=O)N[C@@H](CCCCN)C(=O)N[C@@H](Cc1c[nH]cn1)C(=O)N[C@H](C(=O)N[C@H](C(=O)N[C@@H](CCCCN)C(=O)N[C@@H](CC(C)C)C(=O)N[C@@H](CCCCN)C(=O)N[C@H]1CCC(=O)NCCCC[C@@H](C(=O)N[C@H]2CCCCNC(=O)CC[C@@H](C(=O)N[C@@H](CO)C(=O)N[C@@H](CCCCN)C(=O)N[C@@H](CC(C)C)C(=O)N[C@@H](CCCNC(=N)N)C(=O)N[C@@H](CO)C(=O)N[C@@H](CCC(N)=O)C(=O)N[C@@H](CC(C)C)C(=O)N[C@H](C(=O)N[C@@H](CCCCN)C(=O)N[C@@H](CCCNC(=N)N)C(=O)N[C@@H](CCCCN)C(N)=O)C(C)C)NC(=O)[C@H](CCC(=O)O)NC(=O)[C@H](CO)NC(=O)[C@H](CCCCN)NC2=O)NC(=O)[C@H](CO)NC(=O)[C@H](CC(N)=O)NC(=O)[C@H](CCC(=O)O)NC1=O)C(C)C)C(C)C) [Compound 268]
[1]
  inhibition of cellular invasion (in words): significantly inhibited cellular invasion
  Invasion (% inhib.): 50 % inhib.
[2]
  Fibrosis (% inhib.): 0 % inhib.
[3]
  Function blocking score (FBS): 14

## Ac-(cyclo-6,10)-NLKQK[EKHVK]KLKDE-NH2 (Ac-NLKQKEKHVKKLKDE-NH2; lactam 6-10; SMILES CC(=O)N[C@@H](CC(N)=O)C(=O)N[C@@H](CC(C)C)C(=O)N[C@@H](CCCCN)C(=O)N[C@@H](CCC(N)=O)C(=O)N[C@@H](CCCCN)C(=O)N[C@H]1CCC(=O)NCCCC[C@@H](C(=O)N[C@@H](CCCCN)C(=O)N[C@@H](CC(C)C)C(=O)N[C@@H](CCCCN)C(=O)N[C@@H](CC(=O)O)C(=O)N[C@@H](CCC(=O)O)C(N)=O)NC(=O)[C@H](C(C)C)NC(=O)[C@H](Cc2c[nH]cn2)NC(=O)[C@H](CCCCN)NC1=O) [Compound 159]
[2]
  Fibrosis (% inhib.): 50 % inhib.
[3]
  Function blocking score (FBS): 17

## Ac-NLKQKIKHVVKLKDENSQLKSEVSKLRSQLVKRKQN-NH2 [Compound 275]
[1]
  Invasion (% inhib.): 0 % inhib.
[2]
  Fibrosis (% inhib.): 0 % inhib.
[3]
  Function blocking score (FBS): 12

## Ac-(cyclo-8,12)-NLKQKIK[EVVKK]KDE-NH2 (Ac-NLKQKIKEVVKKKDE-NH2; lactam 8-12; SMILES CC[C@H](C)[C@H](NC(=O)[C@H](CCCCN)NC(=O)[C@H](CCC(N)=O)NC(=O)[C@H](CCCCN)NC(=O)[C@H](CC(C)C)NC(=O)[C@H](CC(N)=O)NC(C)=O)C(=O)N[C@@H](CCCCN)C(=O)N[C@H]1CCC(=O)NCCCC[C@@H](C(=O)N[C@@H](CCCCN)C(=O)N[C@@H](CC(=O)O)C(=O)N[C@@H](CCC(=O)O)C(N)=O)NC(=O)[C@H](CCCCN)NC(=O)[C@H](C(C)C)NC(=O)[C@H](C(C)C)NC1=O) [Compound 161]
[2]
  Fibrosis (% inhib.): 38 % inhib.
[3]
  Function blocking score (FBS): 22

## Ac-KIKHVVKLKDENSQLKSEVSKLRSQLVKRK-NH2 [Compound 265]
[1]
  inhibition of cellular invasion (in words): significantly inhibited cellular invasion
  Invasion (% inhib.): 46 % inhib.
[2]
  Fibrosis (% inhib.): 0 % inhib.
[3]
  Function blocking score (FBS): 28

## Ac-(cyclo-5,9)-VSKL[ESQLK]KRKQN-NH2 (Ac-VSKLESQLKKRKQN-NH2; lactam 5-9; SMILES CC(=O)N[C@H](C(=O)N[C@@H](CO)C(=O)N[C@@H](CCCCN)C(=O)N[C@@H](CC(C)C)C(=O)N[C@H]1CCC(=O)NCCCC[C@@H](C(=O)N[C@@H](CCCCN)C(=O)N[C@@H](CCCNC(=N)N)C(=O)N[C@@H](CCCCN)C(=O)N[C@@H](CCC(N)=O)C(=O)N[C@@H](CC(N)=O)C(N)=O)NC(=O)[C@H](CC(C)C)NC(=O)[C@H](CCC(N)=O)NC(=O)[C@H](CO)NC1=O)C(C)C) [Compound 151]
[1]
  Invasion (% inhib.): 0 % inhib.
[3]
  Function blocking score (FBS): 20

## Ac-(cyclo-6,10)-VSKLR[EQLVK]RKQN-NH2 (Ac-VSKLREQLVKRKQN-NH2; lactam 6-10; SMILES CC(=O)N[C@H](C(=O)N[C@@H](CO)C(=O)N[C@@H](CCCCN)C(=O)N[C@@H](CC(C)C)C(=O)N[C@@H](CCCNC(=N)N)C(=O)N[C@H]1CCC(=O)NCCCC[C@@H](C(=O)N[C@@H](CCCNC(=N)N)C(=O)N[C@@H](CCCCN)C(=O)N[C@@H](CCC(N)=O)C(=O)N[C@@H](CC(N)=O)C(N)=O)NC(=O)[C@H](C(C)C)NC(=O)[C@H](CC(C)C)NC(=O)[C@H](CCC(N)=O)NC1=O)C(C)C) [Compound 152]
[1]
  inhibition of cellular invasion (in words): significantly inhibited cellular invasion
[3]
  function blocking (in words): strong function blocker
  Function blocking score (FBS): 47

## Ac-(cyclo-5,9)-NLKQ[EIKHK]VKLKDE-NH2 (Ac-NLKQEIKHKVKLKDE-NH2; lactam 5-9; SMILES CC[C@H](C)[C@@H]1NC(=O)[C@@H](NC(=O)[C@H](CCC(N)=O)NC(=O)[C@H](CCCCN)NC(=O)[C@H](CC(C)C)NC(=O)[C@H](CC(N)=O)NC(C)=O)CCC(=O)NCCCC[C@@H](C(=O)N[C@H](C(=O)N[C@@H](CCCCN)C(=O)N[C@@H](CC(C)C)C(=O)N[C@@H](CCCCN)C(=O)N[C@@H](CC(=O)O)C(=O)N[C@@H](CCC(=O)O)C(N)=O)C(C)C)NC(=O)[C@H](Cc2c[nH]cn2)NC(=O)[C@H](CCCCN)NC1=O) [Compound 158]
[2]
  Fibrosis (% inhib.): 31 % inhib.
[3]
  Function blocking score (FBS): 22

## Ac-(cyclo-4,8)-NLK[EKIKK]VVKLKDE-NH2 (Ac-NLKEKIKKVVKLKDE-NH2; lactam 4-8; SMILES CC[C@H](C)[C@@H]1NC(=O)[C@H](CCCCN)NC(=O)[C@@H](NC(=O)[C@H](CCCCN)NC(=O)[C@H](CC(C)C)NC(=O)[C@H](CC(N)=O)NC(C)=O)CCC(=O)NCCCC[C@@H](C(=O)N[C@H](C(=O)N[C@H](C(=O)N[C@@H](CCCCN)C(=O)N[C@@H](CC(C)C)C(=O)N[C@@H](CCCCN)C(=O)N[C@@H](CC(=O)O)C(=O)N[C@@H](CCC(=O)O)C(N)=O)C(C)C)C(C)C)NC(=O)[C@H](CCCCN)NC1=O) [Compound 157]
[2]
  Fibrosis (% inhib.): 38 % inhib.
[3]
  Function blocking score (FBS): 8.6

## Ac-(cyclo-7,11)-NLKQKI[EHVVK]LKDE-NH2 (Ac-NLKQKIEHVVKLKDE-NH2; lactam 7-11; SMILES CC[C@H](C)[C@H](NC(=O)[C@H](CCCCN)NC(=O)[C@H](CCC(N)=O)NC(=O)[C@H](CCCCN)NC(=O)[C@H](CC(C)C)NC(=O)[C@H](CC(N)=O)NC(C)=O)C(=O)N[C@H]1CCC(=O)NCCCC[C@@H](C(=O)N[C@@H](CC(C)C)C(=O)N[C@@H](CCCCN)C(=O)N[C@@H](CC(=O)O)C(=O)N[C@@H](CCC(=O)O)C(N)=O)NC(=O)[C@H](C(C)C)NC(=O)[C@H](C(C)C)NC(=O)[C@H](Cc2c[nH]cn2)NC1=O) [Compound 160]
[2]
  Fibrosis (% inhib.): 0 % inhib.
[3]
  Function blocking score (FBS): 0

## Ac-(cyclo-7,11)-VSKLRS[ELVKK]KQN-NH2 (Ac-VSKLRSELVKKKQN-NH2; lactam 7-11; SMILES CC(=O)N[C@H](C(=O)N[C@@H](CO)C(=O)N[C@@H](CCCCN)C(=O)N[C@@H](CC(C)C)C(=O)N[C@@H](CCCNC(=N)N)C(=O)N[C@@H](CO)C(=O)N[C@H]1CCC(=O)NCCCC[C@@H](C(=O)N[C@@H](CCCCN)C(=O)N[C@@H](CCC(N)=O)C(=O)N[C@@H](CC(N)=O)C(N)=O)NC(=O)[C@H](CCCCN)NC(=O)[C@H](C(C)C)NC(=O)[C@H](CC(C)C)NC1=O)C(C)C) [Compound 153]
[1]
  inhibition of cellular invasion (in words): significantly inhibited cellular invasion
  Invasion (% inhib.): 58 % inhib.
[3]
  Function blocking score (FBS): 29
